Read-outs that look alike come from different tables or passages of the source.
Tests used:
[1] = system: peripheral blood mononuclear cells (PBMC); experiment: PBMC culture and MTS assay; type: cell-based, human; settings: for GI50: Homo sapiens, 48 h; for Selectivity Index (PBMC): PBMCs versus average GI50 of cancer cells
Description: Peripheral blood mononuclear cells from healthy donors were isolated by density gradient centrifugation using Ficoll solution as described below. Blood samples used were supplied by the Canadian Blood Services under the Institutional Research Ethics Board Project # 18–099, and no human participants or volunteers were involved directly in the current study.
Whole blood was gently layered over an equal volume of Ficoll and centrifuged at 800 × g for 20 min with no brake. The Buffy coat was carefully collected by pipetting in 50 mL tubes and topped off with PBS. The cell isolates were subsequently mixed by inversion and centrifuged at 300 × g for 12 min. The supernatant was then carefully aspirated without disturbing the cell pellet, and the PBMCs were resuspended in ammonium-chloride-potassium (ACK) lysis buffer. The tubes were left to stand for 15 min to allow for red blood cell lysis. PBS was again added to the cells and centrifuged at 300 × g for 12 min and pelleted PBMCs were resuspended in RPMI + 10% heat inactivated FBS. Following counting, cells were centrifuged again and cryopreserved with a freezing medium composed of 40% FBS, 10% DMSO and 50% culture medium. Cryovials were placed in a − 80 °C for 24 h prior to transfer to liquid nitrogen for long-term storage.
PBMC cryovials were transferred from liquid nitrogen and placed in a 37 °C water bath until almost completely thawed. 1 mL of pre-warmed medium was added drop-wise and the entire contents of the cryovial was transferred to a 15-mL tube. Pre-warmed medium was then added to bring the volume up to 10 mL. The PBMCs were centrifuged at 300 × g for 10 min, and the cell pellet was gently resuspended with 5 mL of warm medium. The tubes were subsequently placed in a 37 °C incubator in a 5° angled rack for 4 h. An additional 5 mL warm medium containing of 30 units/mL benzonase nuclease was then injected into the cell solution and left to stand at room temperature for 5 min before centrifugation for 10 min at 300 × g. The pelleted cells were resuspended in the medium with 100 units/mL of IL-2 (Cedarlane Laboratories, Burlington, ON, Canada) and a small aliquot was used for cell counting and viability staining. The cells were plated in 96-well plates at a density of 80,000–120,000 cellules/well/100 µL.
Following a 48-h incubation period, eight different concentrations of compound solutions using two to four-fold serial dilutions were added to the cells (100 µl). Cells were incubated for an additional 48 h and cytotoxicity was established using the CellTiter 96 cytotoxicity assay (Promega). 40 μl of the tetrazolium dye was added to each well of the plate and then incubated for 2 h. OD was then read directly at 490 nm using the automated Biotek Synergy H4 plate reader. The GI50 was calculated similarly to the SRB.

[2] = molecular target: T1, porcine tubulin (Sus scrofa, UniProt P02550+P02554); experiment: In vitro tubulin polymerization assay; type: biochemical; settings: 20 µM porcine tubulin; for effect on tubulin polymerization: 3 µM compound, 37 °C, 60 min; for effect on tubulin polymerization at higher concentrations: 10, 15 and 20 µM compound
T1 construct: purchased Cytoskeleton Inc., Denver, CO BK011P
Description: Spontaneous polymerization of 20 µM porcine tubulin was initiated with the addition of 1 mmol/L GTP at 37 °C and monitored every minute for 60 min in the presence of the indicated concentration of CTR-21, CTR-32, nocodazole, paclitaxel, or a DMSO vehicle control. To make the graph simpler, only 3 µM concentration is shown. […] A modified Dixon plot was used to determine the inhibitory concentration of CTR-21 and CTR-32 (Ki).
Microtubule assembly was assessed using a Tubulin Polymerization assay kit (BK011P; Cytoskeleton Inc., Denver, CO). […] Polymerization was started by incubating at 37 °C and followed by absorbance readings every 1 min at 340 nm for 1 h using a Synergy H4 plate reader.

[3] = Toxicity in mice (body weight, AST/ALT); type: in vivo, mouse; settings: for liver toxicity (AST and ALT): C57BL/6 mice, up to maximum doses 10 mg (CTR-21) and 50 mg (CTR-32); for toxicity in mice: mice treated at 10 mg/kg
Description: All animal experiments, including animal handling, care, treatments and endpoint determination were reviewed and approved by the Animal Care Committee (ACC) at Laurentian University (Sudbury, Ontario, Canada). We hereby confirm that all animal-based experiments were performed in compliance with relevant guidelines and regulations, including the ARRIVE guidelines (http://www.nc3rs.org.uk/page.asp?id=1357). Weight measurement and AST/ALT experiments were carried out as before.
Neither CTR-21 nor CTR-32 treatment notabl y affect ed the bod y weight of mice treated with CTR-21 or CTR-32. Mice ( C57B L/6) were inject ed (i.p.) ev er y three da ys with the indicated doses of CTR -21 or CTR-32, along with vehicle control. […]
doses used in this experiment (i.e., 10 mg and 50 mg for CTR-21 and CTR-32, respectivel y).
There is no si gnificant changes of AST and ALT between different groups , including vehicl e

[4] = system: HeLa cells; experiment: Cell cycle analysis by flow cytometry; type: cell-based, human
Description: Figure 5 CTR-21 arrests cells at G2/M, eventually leading to cell death by apoptosis. (a) Effects of CTR-21 on the cell cycle progression of HeLa and E112 cells. […] (b) Cell morphology of CTR-21 arrested cells. HeLa cells were treated with 30 nM of CTR-21 for 12 h, fixed with methanol and immunostained with α-tubulin or γ-tubulin, and counterstained with DAPI. Bar = […]. (c) CTR-21 promotes PARP cleavage. […] GAPDH was used as a loading control.
Cell cycle progression was determined using flow cytometry. UKRV-Mel-38 and HeLa cells were plated onto 10 cm plate at a density of 0.5 million and treated them with or without the compounds the following day for 12, 24 or 48 h. Cells were then harvested and centrifuged at 1000 rpm for 5 min, washed in PBS and then fixed with ice-cold ethanol (70%) for at least 24 h at − 20 °C. The cells were centrifuged, re-suspended in PBS solution, followed by centrifugation. The cell pellet was then stained with 100 μg/mL propidium iodide (PI) and 100 μg/mL RNase A in distilled water for at least 1 h. DNA content was measured using a Beckmann Coulter Cytomics FC500 (Beckman Coulter, Fullerton, CA), and the proportion of cell populations in G0/G1, S, and G2/M phases of cell cycle was calculated on the basis of DNA distribution histograms using CXP software (Beckman Coulter, Fullerton, CA).

[5] = PBMC #1, MTS, read-out: GI50 PBMC #1
[6] = PBMC #2, MTS, read-out: GI50 PBMC #2

T1 sequence (P02554 whole entry): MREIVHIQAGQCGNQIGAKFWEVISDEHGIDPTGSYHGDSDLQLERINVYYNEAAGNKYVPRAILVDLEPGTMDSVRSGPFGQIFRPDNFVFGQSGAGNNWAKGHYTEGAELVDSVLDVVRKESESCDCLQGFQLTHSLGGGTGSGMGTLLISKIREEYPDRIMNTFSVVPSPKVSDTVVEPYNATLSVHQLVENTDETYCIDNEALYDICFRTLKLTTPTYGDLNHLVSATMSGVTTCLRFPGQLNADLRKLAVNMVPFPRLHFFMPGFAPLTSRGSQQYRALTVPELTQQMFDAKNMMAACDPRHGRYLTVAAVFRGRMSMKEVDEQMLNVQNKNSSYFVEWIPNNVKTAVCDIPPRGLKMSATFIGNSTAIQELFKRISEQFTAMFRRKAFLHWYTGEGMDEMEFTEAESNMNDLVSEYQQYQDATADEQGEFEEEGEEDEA
T1 sequence (P02550 whole entry): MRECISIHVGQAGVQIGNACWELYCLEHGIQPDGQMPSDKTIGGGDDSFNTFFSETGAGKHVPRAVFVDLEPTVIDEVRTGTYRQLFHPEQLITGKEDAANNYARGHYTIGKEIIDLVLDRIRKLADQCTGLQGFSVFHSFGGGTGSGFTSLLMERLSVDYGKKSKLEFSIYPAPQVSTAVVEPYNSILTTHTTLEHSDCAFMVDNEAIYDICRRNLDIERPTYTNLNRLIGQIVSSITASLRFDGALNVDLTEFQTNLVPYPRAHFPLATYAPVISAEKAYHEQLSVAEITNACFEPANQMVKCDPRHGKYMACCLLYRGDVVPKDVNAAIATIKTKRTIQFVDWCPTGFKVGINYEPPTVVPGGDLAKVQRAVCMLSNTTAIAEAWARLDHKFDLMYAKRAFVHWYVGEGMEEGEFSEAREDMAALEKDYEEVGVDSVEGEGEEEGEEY

With `COc1ccccc1C(=O)/C=C/c1cc2cccc(OC)c2[nH]c1=O` [CTR-21, (E)-8-methoxy-3-(3-(2-methoxyphenyl)-3-oxoprop-1-enyl) quinolin-2(1H)-one] the GI50 [1, 5] was 1.86 ± 0.336 µM, the GI50 [1, 6] was 1.63 ± 0.317 µM and the “Selectivity Index (PBMC)” value [1] was 106. The “effect on tubulin polymerization” value [2] was “reduced steady-state”, the “effect on tubulin polymerization at higher concentrations” value [2] was “did not appreciably increase the inhibition of tubulin dynamics” and the “liver toxicity (AST and ALT)” value [3] was “do not show notable liver”. The ALT ([3]; female C57BL/6 mice, 1 mg/kg) was 118.03±25.82 U/L, the AST ([3]; female C57BL/6 mice, 1 mg/kg) was 249.47±77.12 U/L and the AST/ALT ([3]; female C57BL/6 mice, 1 mg/kg) was 2.12. The ALT ([3]; female C57BL/6 mice, 5 mg/kg) was 142.17±45.44 U/L, the AST ([3]; female C57BL/6 mice, 5 mg/kg) was 265.03±97.76 U/L and the AST/ALT ([3]; female C57BL/6 mice, 5 mg/kg) was 1.86. The ALT ([3]; female C57BL/6 mice, 10 mg/kg) was 142.98±45.61 U/L, the AST ([3]; female C57BL/6 mice, 10 mg/kg) was 319.215±101.93 U/L and the AST/ALT ([3]; female C57BL/6 mice, 10 mg/kg) was 2.23. The ALT ([3]; male C57BL/6 mice, 1 mg/kg) was 128.49±60.78 U/L, the AST ([3]; male C57BL/6 mice, 1 mg/kg) was 264.42±91.94 U/L and the AST/ALT ([3]; male C57BL/6 mice, 1 mg/kg) was 2.06. For the same molecule, the ALT ([3]; male C57BL/6 mice, 5 mg/kg) was 142.71±58.30 U/L, the AST ([3]; male C57BL/6 mice, 5 mg/kg) was 228.82±42.23 U/L and the AST/ALT ([3]; male C57BL/6 mice, 5 mg/kg) was 1.60. For the same molecule, the ALT ([3]; male C57BL/6 mice, 10 mg/kg) was 123.93±49.96 U/L, the AST ([3]; male C57BL/6 mice, 10 mg/kg) was 242.62±102.65 U/L and the AST/ALT ([3]; male C57BL/6 mice, 10 mg/kg) was 1.96. The toxicity in mice [3] was “no ill-effects observed” and the cell cycle effect ([4]; HeLa, 30 nM, by 12 h, maintained after 24 h) was “arrest in G2/M”.

For `CCOc1ccccc1C(=O)/C=C/c1cc2ccccc2[nH]c1=O` [CTR-32, (E)-3-(3-(2-ethoxyphenyl)-3-oxoprop-1-enyl)quinolin-2(1H)-one], the GI50 [1, 5] was 1.88 ± 0.147 µM, the GI50 [1, 6] was 0.787 ± 0.396 µM and the “Selectivity Index (PBMC)” value [1] was 67. The “effect on tubulin polymerization” value [2] was “does not affect the steady state dynamics or Vmax of tubulin polymerization”, the “effect on tubulin polymerization at higher concentrations” value [2] was “almost completely inhibited the formation of microtubule polymers” and the “liver toxicity (AST and ALT)” value [3] was “do not show notable liver”. It also gave an ALT ([3]; female C57BL/6 mice, 30 mg/kg) of 103.54±61.53 U/L, an AST ([3]; female C57BL/6 mice, 30 mg/kg) of 253.74±117.87 U/L and an AST/ALT ([3]; female C57BL/6 mice, 30 mg/kg) of 2.45. For the same molecule, the ALT ([3]; female C57BL/6 mice, 50 mg/kg) was 87.81±25.42 U/L, the AST ([3]; female C57BL/6 mice, 50 mg/kg) was 268.16±136.88 U/L and the AST/ALT ([3]; female C57BL/6 mice, 50 mg/kg) was 3.05. For the same molecule, the ALT ([3]; male C57BL/6 mice, 30 mg/kg) was 110.30±44.56 U/L, the AST ([3]; male C57BL/6 mice, 30 mg/kg) was 288.49±184.97 U/L and the AST/ALT ([3]; male C57BL/6 mice, 30 mg/kg) was 2.62. It also gave an ALT ([3]; male C57BL/6 mice, 50 mg/kg) of 96.57±45.23 U/L, an AST ([3]; male C57BL/6 mice, 50 mg/kg) of 217.49±39.91 U/L and an AST/ALT ([3]; male C57BL/6 mice, 50 mg/kg) of 2.25. The toxicity in mice [3] was “no ill-effects observed” and the cell cycle effect ([4]; 3× GI50, 12 or 24 h, HeLa and UKRV-Mel-38 (Supplemental Fig. S11)) was “arrests the cells in G2/M”.

From publication PMC8566451, “Lead optimization of novel quinolone chalcone compounds by a structure–activity relationship (SAR) study to increase efficacy and metabolic stability” (Scientific Reports, 2021)
